Consider two compounds from US20190079094A1, “SUBCELLULAR LOCALIZATION OF TARGET ANALYTES” (Beckman Coulter, Inc., priority 2016, published 2019).

What all share (format): cell-based
The test system of assay [1] is granulocytes. Description: Detergent titration for differential permeabilization of granulocytes (HSP60, Lamin A/C). Particulars: detergent alone. An excerpt:
FIG. 6. Titration of Detergents In Order to Identify the Optimal Concentrations for Cytoplasmic vs. Nuclear Membrane Permeabilization of Granulocytes. […] As in FIG. 5, HSP60 and Lamin A/C were used to indicate the degree of mitochondrial inner membrane and nuclear membrane permeabilization, respectively.
For Peripheral Blood Mononuclear Cells (PBMCs), cell lines, and other purified cells, Buffer 1 and Buffer 2 have different compositions than for whole blood; however, the protocol is otherwise the same. Most cell lines perform similar to PBMCs. In addition, whole-blood granulocytes may require a different buffer combination to appropriately permeabilize their cytoplasmic vs. nuclear compartments.
In some cases, using the defined buffers for the Subcellular Localization Kit may not effectively and reproducibly permeabilize granulocytes as they do mononuclear cells, and can be better targeted with a different detergent combination. […] Tween 20 at a concentration >0.5% can be seen to permeabilized the cytoplasmic+mitochondrial membranes without permeabilizing the nuclear membrane, while Digitonin and TX-100 alone at lower concentrations will permeabilize the nuclear or mitochondrial membranes, respectively. Ultimately, differential permeabilization of granulocytes can be more complex than for mononuclear cells depending on the target organelles.

Assay [2] deals with NF-κB and AKT signaling in whole-blood monocytes and T cells. The experiment in a line: LPS stimulation of whole blood, cytoplasmic vs. nuclear signaling. The conditions noted are these: 1 μg/mL LPS. The procedure: FIGS. 7A and 7B. Stimulation of Monocytes with 1 μg/mL LPS. A) Comparison of the scatter profiles between Buffer 1 and Buffer 2 lysis, as well as the gating workflow. B) Cytoplasmic vs. nuclear signaling in whole-blood monocytes. C) Cytoplasmic vs. nuclear signaling in T cells.
(§1) The protocol for processing whole blood samples is as follows (see FIG. 1 for a workflow): 1) The sample is first mixed 1:1 with fixative, vortexed, and then incubated for 10 minutes. An extra control tube is included for each buffer, which is stained with all antibodies except for the specific signaling or target antibodies being tested in order to subtract the background signal. […] 6) Once stained, the samples are again washed 2× with PBS or wash buffer, resuspended in PBS+0.5% PFA, and read on a flow cytometer.
(§2) After data acquisition, the samples are gated, compensated, and analyzed as standard flow cytometry samples. […] For example, if staining for the subcellular distribution of FoxP3, where the Background MFIs for the Cytoplasm and Whole Cell are 1.5 and the raw FoxP3 signal is 3.5 and 31.5 for the Cytoplasm and Whole Cell, respectively, then the Cytoplasmic MFI would be calculated to be 2 (i.e., 3.5 (raw)−1.5 (background)=2) and the Nuclear MFI would be calculated to be 28 (i.e., 31.5 (raw)−1.5 (background)−2 (Cytoplasm)=28). […]

Assay [3] concerns CREB, RelA and ERK phosphorylation in monocytes. The experiment in a line: Stimulation of monocytes with LPS or GM-CSF, cytoplasmic vs. nuclear signaling. The conditions noted are these: primarily cytoplasm, 1 μg/mL LPS or 100 ng/mL GM-CSF. The procedure:
FIG. 8. Differential Signaling in Monocytes Induced by 1 μg/mL LPS vs. 100 ng/mL GM-CSF. A) Both LPS and GM-CSF induced CREB phosphorylation at S133, accumulating maximally in the nucleus by 10 min. B) LPS stimulation induced RelA phosphorylation maximally by 10 min in both the cytoplasm and nucleus, though predominantly in the nucleus. C) Both LPS and GM-CSF stimulated ERK phosphorylation primarily in the cytoplasm, maximally by 5 min for GM-CSF and 10 min for LPS.
as §1, with “signal. The background control may also be labeled with isotype-control antibodies for more precise determination of non-specific binding, especially in cells that have characteristically high non-specific binding, such as neutrophils. For indirect antibody labeling, omitting the primary antibody, but still utilizing the secondary antibody, is a common method for determining the degree of non-specific background signal attributable to the secondary antibody, which is typically higher than the direct conjugates of target antibodies.” for “signal.”
as §2

“Also recorded” adds a separate entry of the source.

For `CCCCCCCCCCCC(=O)OCCOCCOCCOCCOCCOCCOCCOCCOCCOCCOCCOCCOCCOCCOCCOCCOCCOCCOCCOCCOCC(OCCOCCOCCOCCOCCOCCOCCOCCOCCOCCOCCOCCOCCOCCOCCOCCOCCOCCOCCOCCO)C1OCC(OCCOCCOCCOCCOCCOCCOCCOCCOCCOCCOCCOCCOCCOCCOCCOCCOCCOCCOCCOCCO)C1OCCOCCOCCOCCOCCOCCOCCOCCOCCOCCOCCOCCOCCOCCOCCOCCOCCOCCOCCOCCO` (stereo not drawn) [Tween 20, Polysorbate 20], the “concentration permeabilizing the cytoplasmic+mitochondrial membranes without the nuclear membrane” value in assay [1] was above 0.5%.
With lipopolysaccharide [LPS], the “signaling induced in T cells” value in assay [2] was “did not stimulate T cells; also recorded: lack of any signaling induced in T cells”. Besides, in assay [3], the “time of peak ERK phosphorylation (S202/T204)” value is at most 10 min.
